Experimental findings from patent publication US20100016298A1, “Theramutein modulators” (priority 2005, published 2010) are described below.

Bounds are passed on as bounds.

The assay deals with T1, Ba/F3 cells expressing the p210Bcr-Abl-T315I theramutein (Homo sapiens, UniProt P00519, T315I, cells depend on it).
T1 construct: IC50 activity category, T315I; T315I cell line; even at 10 μM concentration; fused on or other part: P11274 (Breakpoint cluster region protein)
The experiment in a line: cellular assay system: growth inhibition (cell count), Ba/F3 T315I cell line. Type of assay: cell-based, murine. The note with it: concentration inhibiting growth of the cell line by 50%, read-out: IC50 activity category, T315I.
As to `Oc1ccccc1/C=N/Nc1ncc(F)c(N2CCOCC2)n1`, the GI50 is less than 10000 nM. The same measure for `Fc1cnc(N/N=C/c2ccccn2)nc1N1CCOCC1`: less than 1000 nM; for `Oc1ccc(Br)cc1/C=N/Nc1ncc(F)c(N2CCOCC2)n1`: less than 1000 nM; for `Cc1ccccc1/C=N/Nc1ncc(F)c(N2CCOCC2)n1`: greater than 10000 nM. As for `Cc1ccc(/C=N/Nc2ncc(F)c(N3CCOCC3)n2)cc1`, the GI50 was greater than 10000 nM.

For `Fc1cnc(N/N=C/c2ccccc2)nc1N1CCOCC1`, the GI50 was greater than 10000 nM. As for `O=C(Nc1cccc(C(F)(F)F)c1)c1cc(Cl)c(O)c(/C=N\Nc2ncc(F)c(N3CCOCC3)n2)c1`, the GI50 was less than 1000 nM.

For the compound `O=C(Nc1cccc(C(F)(F)F)c1)c1cccc(/C=N/Nc2ncc(F)c(N3CCOCC3)n2)n1`, the GI50 was greater than 10000 nM. As to `O=C(Nc1cccc(C(F)(F)F)c1)c1ccc(/C=N/Nc2ncc(F)c(N3CCOCC3)n2)nc1`, the GI50 was less than 1000 nM. The same measure for `Fc1cnc(N/N=C/c2ccc(-c3cccc(C(F)(F)F)c3)cn2)nc1N1CCOCC1`: less than 1000 nM. The same measure for `O=C(C/C=N/Nc1ncc(F)c(N2CCOCC2)n1)Nc1cccc(C(F)(F)F)c1`: greater than 10000 nM; for `Cc1cccc(Cl)c1NC(=O)C/C=N/Nc1ncc(F)c(N2CCOCC2)n1`: greater than 10000 nM; for `Fc1cnc(N/N=C/c2ccc(Nc3ccc(N4CCOCC4)cc3)cn2)nc1N1CCOCC1`: less than 1000 nM. The same measure for `Fc1cnc(N/N=C/c2ccc(Nc3ccc(-c4ccccn4)c(Cl)c3)cn2)nc1N1CCOCC1`: less than 1000 nM; for `CC(C(=O)O)c1ccc(Nc2ccc(/C=N/Nc3ncc(F)c(N4CCOCC4)n3)nc2)cc1` (centres unmarked): greater than 10000 nM. Consider `Fc1cnc(N/N=C/c2ccc(Nc3cccc(-n4ccnc4)c3)cn2)nc1N1CCOCC1`, for which the GI50 is less than 1000 nM.

For `Cc1cc(Nc2ccc(/C=N/Nc3ncc(F)c(N4CCOCC4)n3)nc2)cc(N2CCNCC2)c1`, the GI50 was less than 1000 nM. The same measure for `O=C(NNc1ncc(F)c(N2CCOCC2)n1)c1ccc(Nc2cccc(C(F)(F)F)c2)cn1`: less than 1000 nM.

As to `Cc1cc(Nc2cccc(C(F)(F)F)c2)ccc1/C=N/Nc1ncc(F)c(N2CCOCC2)n1`, the GI50 was greater than 10000 nM.

Turning to `CN(C)c1cc(O)cc(Nc2ccc(/C=N/Nc3ncc(F)c(N4CCOCC4)n3)nc2)c1`, the GI50 was less than 1000 nM. In the case of `Fc1cnc(N/N=C/c2ccc(Nc3cccc(C(F)(F)F)c3)cn2)nc1-c1cncc(-c2ccccc2)c1`, the GI50 is less than 1000 nM. For the compound `Fc1cnc(N/N=C/c2ccc(Nc3cccc(C(F)(F)F)c3)cn2)nc1-c1cncc(C2CC2)c1`, the GI50 is less than 10000 nM. In the case of `Oc1cccc(Nc2cccc(Nc3ccc(/C=N/Nc4ncc(F)c(N5CCOCC5)n4)nc3)c2)c1`, the GI50 is less than 1000 nM.
